{"source": "patent US20100028334A1", "about": "“COMPOSITIONS AND METHODS TO POTENTIATE COLISTIN ACTIVITY” (TRUSTEES OF BOSTON UNIVERSITY, priority 2006, published 2010)", "key": {"E. coli": {"system": "E. coli", "test": "minimum inhibitory concentration (MIC) assay of colistin with mefloquine", "type": "cell-based", "method": "The efficacy of colistin in inhibiting the growth and/or suppressing survival of E. coli in the presence of one inhibitor, mefloquine was assessed in a minimum inhibitory concentration (MIC) assay."}, "gram-positive bacteria": {"system": "gram-positive bacteria", "type": "cell-based", "settings": "used concurrently with colistin; data not shown"}, "[1]": {"target": "Escherichia coli H+-ATP synthase (Escherichia coli, UniProt P0AB98+P68699)", "settings": "cited from earlier work"}, "[2]": {"system": "wild-type, BW25113 E. coli cells", "test": "colony formation unit (CFU) assay, parent strain", "type": "cell-based", "method": "(§1) The cells were incubated with colistin at a final concentration of 1.25 ug/ml. […] 10 ul of cells were plated onto LB agar [no colistin] plates. Number of colonies were counted after overnight incubation at 37 C. Colony count was normalized to get the same starting amount of cells for all strains. […] Log change in colony forming units per ml (CFU/ml) of wild-type, BW25113 E. coli cells (mean±s.d.) in presence or absence of colistin and potassium tellurite. Cell were grown in the absence or presence of colistin (1.25 ug/ml), potassium tellurite (1.6 ug/ml) alone and combined. […] Number of colonies were counted after overnight incubation at 37 C. Colony count was normalized to get the same starting amount of cells for all strains.\nFor CFU measurements, 50 μl of stationary phase culture was inoculated into 5 ml of LB. 240 or 245 μl of the freshly diluted cells were placed into wells of a 96 well plate (Costar), 5 μl of colistin and or potassium tellurite were added into each well to obtain a final volume of 250 μl. The 96 well plates were then incubated at 37° C. At the 0, 3 and 6 hours time points, 20 μl of culture was collected and then serially diluted in 180 μl of 1×PBS, pH 7.2 (Fisher). A 10 μl portion of each dilution was plated onto LB agar (Fisher)), and the plate was incubated overnight at 37° C. Dilutions that yielded between 20 and 100 colonies were counted and CFU were normalized to reflect the same amount of cells for the starting cultures.\nThe cells were grown with or without colistin, aliquots were taken at defined time points and serial dilution of the cells plated, colony count allowed to quantify the bactericidal effect of colistin. We noticed that the iscS and ubiH mutants were slow growers and formed small size colonies compared to the parent strain."}, "iscS mutant": {"system": "iscS mutant", "settings": "Rojas and Vasquez, 2005; cited from earlier work"}, "P aeruginosa": {"system": "P aeruginosa", "settings": "recent studies; cited from earlier work"}, "[3]": {"settings": "after intravenous administration of colistimethate (sodium); cited from earlier work"}, "[4]": {"system": "ubiH and iscS mutant E. coli cells", "test": "colony formation unit (CFU) assay, deletion mutants", "type": "cell-based", "settings": "colistin 1.25 ug/ml, FIG. 5A", "method": "as §1\nFor CFU measurements, 50 μl of stationary phase culture was inoculated into 5 ml of LB. 240 or 245 μl of the freshly diluted cells were placed into wells of a 96 well plate (Costar), 5 μl of colistin and or potassium tellurite were added into each well to obtain a final volume of 250 μl. […] Dilutions that yielded between 20 and 100 colonies were counted and CFU were normalized to reflect the same amount of cells for the starting cultures.\nThe cells were grown with or without colistin, aliquots were taken at defined time points and serial dilution of the cells plated, colony count allowed to quantify the bactericidal effect of colistin. […]"}, "[5]": {"settings": "cited from earlier work"}}}
{"molecule": "OC(c1cc(C(F)(F)F)nc2c(C(F)(F)F)cccc12)C1CCCCN1", "note": "(stereo not shown) [mefloquine]", "values": [{"measurement": "potentiation of colistin efficacy by mefloquine", "setting": "E. coli; mefloquine at concentrations above 50 μg/ml or greater", "result": "dose-dependent potentiation of colistin efficacy"}, {"measurement": "potentiation of colistin against gram-positive bacteria", "setting": "gram-positive bacteria", "result": "potentiates colistin ability to decrease gram-positive bacteria"}]}
{"molecule": "CC[C@H]1/C=C/C=C/C[C@@H](C)[C@H](O)[C@@](C)(O)C(=O)[C@@H](C)[C@H](O)[C@@H](C)C(=O)[C@@H](C)[C@H](O)[C@@H](C)/C=C/C(=O)O[C@@H]2[C@H](C)[C@H](CC1)O[C@]1(CC[C@H](C)[C@H](C[C@@H](C)O)O1)[C@H]2C", "note": "[oligomycin]", "values": [{"measurement": "inhibition of ATP-driven proton transport and ATP hydrolysis", "setting": "[1]", "result": "weakly inhibited"}]}
{"molecule": "O=[Te]([O-])[O-].[K+].[K+]", "note": "[potassium tellurite]", "values": [{"measurement": "effect on CFU", "setting": "[2]; potassium tellurite 1.6 ug/ml, 3 hour time point", "result": "not or little affecting the CFU"}, {"measurement": "growth inhibition", "setting": "[2]; potassium tellurite 1.6 ug/ml, 6 hours", "result": "stronger growth inhibition"}, {"measurement": "sensitivity of iscS mutant", "setting": "iscS mutant", "result": "sensitive"}]}
{"molecule": "colistimethate", "values": [{"measurement": "antibacterial activity", "setting": "P aeruginosa", "result": "non-active prodrug of colistin"}, {"measurement": "plasma half-lives relative to those of the colistin generated", "setting": "[3]", "result": "approximately half"}]}
{"molecule": "colistin", "values": [{"measurement": "MIC of colistin", "setting": "E. coli; in the absence of mefloquine", "result": 6.3, "unit": "µg/mL"}, {"measurement": "MIC of colistin required to suppress growth", "setting": "E. coli; in the presence of 50 μg/ml of mefloquine", "result": 6.3, "unit": "µg/mL"}, {"measurement": "MIC of colistin required to suppress growth", "setting": "E. coli; in the presence of 100 μg/ml of mefloquine", "result": 3.1, "unit": "µg/mL"}, {"measurement": "MIC of colistin required to suppress growth", "setting": "E. coli; in the presence of 200 μg/ml of mefloquine", "result": 0.8, "unit": "µg/mL"}, {"measurement": "viability of parent strain compared to non treated cells", "setting": "[2]; colistin 1.25 ug/ml, 3 and 5 hour time points, FIG. 5A", "result": "no significant decrease in viability"}, {"measurement": "viability (CFU) compared to non treated cells", "setting": "[2]; colistin 1.25 ug/ml, 3 hour time point, FIG. 5B", "result": "no significant decrease in viability"}, {"measurement": "viability (CFU)", "setting": "[2]; colistin 1.25 ug/ml, 5 hour time point, FIG. 5B", "result": "decrease in viability"}, {"measurement": "colony detection", "setting": "[4]; 5 hour time point", "result": "almost no colony detection"}, {"measurement": "viability of mutants when exposed to colistin", "setting": "[4]", "result": "significant decrease in viability"}, {"measurement": "stability in human plasma", "setting": "[5]", "result": "more stable than colistimethate"}]}
{"molecule": "venturicidin", "values": [{"measurement": "inhibition of ATP-driven proton transport and ATP hydrolysis", "setting": "[1]", "result": "strongly inhibited"}]}
